Results from PubChem BioAssay AID1963867 (Molecular Pharmacology Branch, DTP, NCI, 2024).

Tested on: KRAS-mutant PDC tumor spheroid with HUVEC/MSC, viability
Assay: Anticancer human tumor 327498-153-R-J2-PDC patient-derived uterine carcinosarcoma cell line growth inhibition [KRAS2]
Settings: for IC50: curve of first compound; for viability, T/C: stronger effect = lower value
Excerpt: Multicellular complex tumor spheroid response to RAS pathway inhibitors in combination with a targeted agents in patient-derived cell lines with oncogenic KRAS variants from multiple cancer types
A high-throughput screen of multi-cell type tumor spheroids was designed to identify active combinations of targeted small molecules and KRAS pathway inhibitors. Complex spheroids include a stromal component modeled by human endothelial cells (HUVEC) and fibroblasts modeled by human mesenchymal stem cells (MSCs). The concentration ranges selected for each drug and investigational agent were based upon clinically achievable concentrations if the clinical Cmax of the agent was known.
Compounds. The drugs and investigational agents: BI-3406 (NSC825286), BAY-293 (NSC824723), batoprotafib (TNO155; NSC825523), sotorasib (AMG 510; NSC818433), MRTX1257 (NSC819558), elimusertib (BAY 1895344; NSC800525), molibresib (GSK525762; NSC774829), temuterkib (LY3214996; NSC803410), venetoclax (NSC766270), alisertib (NSC759677), olaparib (NSC753686), talazoparib (NSC767125), erdafitinib (NSC781556), ipatasertib (NSC767898), cabozantinib (NSC761068), nintedanib (NSC756659), abemaciclib (NSC768073), docetaxel (NSC628503), trametinib (NSC758246), and sapanisertib (NSC764658) were obtained from the National Cancer Institute (NCI) Developmental Therapeutics Program Chemical Repository. The FDA-approved anticancer drug set is available from the Developmental Therapeutics Program. […] The stock solutions were prepared in dimethyl sulfoxide (DMSO, Sigma-Aldrich, St. Louis, MO, cat. D2650) at 800-fold the tested concentration and stored at -70 degrees C prior to their use. All drugs and investigational agents were tested over a range starting from a high concentration at or near the clinical Cmax and decreasing in half-log increments. If the clinical Cmax for an agent had not been determined, the highest concentration tested was 10 microM.
Cell Culture. All cells were maintained in an incubator at 37 degrees C and 5% CO2 with 95% humidity. The PDC lines were cultured according to standard operating procedures established by the NCI PDMR (https://pdmr.cancer.gov/sops/default.htm). Briefly, all PDCs were thawed and cultured in Matrigel-coated flasks prepared with a working solution of 1X Ham's F-12 nutrient mix, without supplementation (Invitrogen, Waltham, MA, cat. 11765054), 100 U/mL penicillin-streptomycin (Invitrogen, cat. 15140122), and 2.5% Matrigel (Corning Inc., Corning, NY, cat. 354248) for the first three passages. All PDCs were cultured in complete DMEM/F-12 media containing advanced DMEM/F-12 (Invitrogen, cat. 12634028), 4.9% defined fetal bovine serum, heat inactivated (HyClone Laboratories Inc., Logan, UT, cat. SH30070.03HI), 389 ng/mL hydrocortisone (Sigma-Aldrich, cat. H4001), 9.7 ng/mL human EGF recombinant protein (Invitrogen, cat. PHG0313), 23.4 microg/mL adenine (Sigma-Aldrich, cat. A2786), 97.3 U/mL penicillin-streptomycin (Invitrogen, cat. 15140122), 1.9 mM L-glutamine (Invitrogen, cat. 25030081), and 9.7 microM Y-27632 dihydrochloride (Tocris Bioscience, Bristol, United Kingdom, cat. 1254). The PDCs were cultured in complete DMEM/F12 media without 9.7 microM Y-27632 dihydrochloride for at least two passages prior to the screen. The established cell line HOP-62 was cultured in RPMI 1640 medium, HEPES (Invitrogen, cat. 22400105) with 10% defined fetal bovine serum (HyClone Laboratories Inc., cat. SH30070.03) and 2 mM L-glutamine (Invitrogen, cat. 25030081). The pooled donor HUVEC were cultured in endothelial cell growth medium 2 (PromoCell, Heidelberg, Germany, cat. C-22011) and the hMSC were cultured in mesenchymal stem cell growth medium 2 (PromoCell, cat. C-28009). For all experiments, HUVEC and hMSC were used at passages </=5, while the malignant cell lines were used at passages </=15. […]

[1] = second compound 0.1 µM, first compound 0.0316 µM
[2] = second compound 0.1 µM, first compound 0.1 µM
[3] = second compound 0.1 µM, first compound 0.316 µM
[4] = second compound 0.1 µM, first compound 1 µM
[5] = second compound 0.1 µM, first compound 3.16 µM
[6] = second compound 0.1 µM, first compound 10 µM
[7] = second compound 0.316 µM, first compound 0.0316 µM
[8] = second compound 0.316 µM, first compound 0.1 µM
[9] = second compound 0.316 µM, first compound 0.316 µM
[10] = second compound 0.316 µM, first compound 1 µM
[11] = second compound 0.316 µM, first compound 3.16 µM
[12] = second compound 0.316 µM, first compound 10 µM
[13] = second compound 1 µM, first compound 0.0316 µM
[14] = second compound 1 µM, first compound 0.1 µM
[15] = second compound 1 µM, first compound 0.316 µM
[16] = second compound 1 µM, first compound 1 µM
[17] = second compound 1 µM, first compound 3.16 µM
[18] = second compound 1 µM, first compound 10 µM
[19] = second compound 3.16 µM, first compound 0.0316 µM
[20] = second compound 3.16 µM, first compound 0.1 µM
[21] = second compound 3.16 µM, first compound 0.316 µM
[22] = second compound 3.16 µM, first compound 1 µM
[23] = second compound 3.16 µM, first compound 3.16 µM
[24] = second compound 3.16 µM, first compound 10 µM
[25] = second compound 10 µM, first compound 0.0316 µM
[26] = second compound 10 µM, first compound 0.1 µM
[27] = second compound 10 µM, first compound 0.316 µM
[28] = second compound 10 µM, first compound 1 µM
[29] = second compound 10 µM, first compound 3.16 µM
[30] = second compound 10 µM, first compound 10 µM
[31] = second compound 0.1 µM, first compound 0.01 µM
[32] = second compound 0.316 µM, first compound 0.01 µM
[33] = second compound 1 µM, first compound 0.01 µM
[34] = second compound 3.16 µM, first compound 0.01 µM
[35] = second compound 10 µM, first compound 0.01 µM
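Note: spheroids exposed to agents for seven days before reading.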
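Throughout, for viability, T/C: 100% = DMSO vehicle wells so lower means fewer viable cells.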

SMILES	IC50 (second compound 0.1 µM) [µM]	IC50 (second compound 0.316 µM) [µM]	IC50 (second compound 1 µM) [µM]	IC50 (second compound 3.16 µM) [µM]	IC50 (second compound 10 µM) [µM]	viability, T/C [1] [%]	viability, T/C [2] [%]	viability, T/C [3] [%]	viability, T/C [4] [%]	viability, T/C [7] [%]	viability, T/C [8] [%]	viability, T/C [9] [%]	viability, T/C [10] [%]	viability, T/C [13] [%]	viability, T/C [14] [%]	viability, T/C [15] [%]	viability, T/C [16] [%]	viability, T/C [19] [%]	viability, T/C [20] [%]	viability, T/C [21] [%]	also measured
CC(C)NCC(C(=O)N1CCN(c2ncnc3c2C(C)CC3O)CC1)c1ccc(Cl)cc1 (stereo not given) + C=CC(=O)N1CCN(c2nc(=O)n(-c3c(C)ccnc3C(C)C)c3nc(-c4c(O)cccc4F)c(F)cc23)C(C)C1	0.0418	< 0.0316	< 0.0316	< 0.0316	< 0.0316	54.5	36.3	22.2	15.3	46.5	32.4	15.7	13.5	48.2	29.6	19.9	13.5	39.5	27.3	17.8	viability, T/C [5]: 11.2%; viability, T/C [6]: 9.06%; viability, T/C [11]: 11%; viability, T/C [12]: 7.87%; viability, T/C [17]: 10.4%; viability, T/C [18]: 7.77%; viability, T/C [22]: 12.2%; viability, T/C [23]: 9.99%; viability, T/C [24]: 8.2%; viability, T/C [25]: 33.5%; viability, T/C [26]: 18.2%; viability, T/C [27]: 14.6%; viability, T/C [28]: 9.84%; viability, T/C [29]: 9.14%; viability, T/C [30]: 3.03%
CC1COCCN1c1cc(-c2ccnn2C)c2ccnc(-c3ccn[nH]3)c2n1 (stereo not given) + C=CC(=O)N1CCN(c2nc(=O)n(-c3c(C)ccnc3C(C)C)c3nc(-c4c(O)cccc4F)c(F)cc23)C(C)C1	0.0129	< 0.01	< 0.01	< 0.01	< 0.01	24.8	8.42	5.52	6.25	21.4	9	6.3	6.22	23.3	10.6	7.15	6.94	19.8	11.8	8.81	viability, T/C [31]: 57%; viability, T/C [5]: 5.47%; viability, T/C [32]: 46.7%; viability, T/C [11]: 6.06%; viability, T/C [33]: 40.1%; viability, T/C [17]: 6.78%; viability, T/C [34]: 42.5%; viability, T/C [22]: 7.29%; viability, T/C [23]: 6.89%; viability, T/C [35]: 28.5%; viability, T/C [25]: 14.4%; viability, T/C [26]: 11.9%; viability, T/C [27]: 9.29%; viability, T/C [28]: 8.01%; viability, T/C [29]: 6.76%
CCN1CCN(Cc2ccc(Nc3ncc(F)c(-c4cc(F)c5nc(C)n(C(C)C)c5c4)n3)nc2)CC1 + C=CC(=O)N1CCN(c2nc(=O)n(-c3c(C)ccnc3C(C)C)c3nc(-c4c(O)cccc4F)c(F)cc23)C(C)C1	0.00523	< 0.00316	< 0.00316	< 0.00316	< 0.00316	32.7	30.6	30.7	35.1	28.2	31.1	34.9	40	30.2	33.5	39	38.3	33.8	32.7	40.5	viability, T/C (second compound 0.1 µM, first compound 0.00316 µM): 56.9%; viability, T/C [31]: 42.5%; viability, T/C (second compound 0.316 µM, first compound 0.00316 µM): 49.6%; viability, T/C [32]: 40.5%; viability, T/C (second compound 1 µM, first compound 0.00316 µM): 48.3%; viability, T/C [33]: 42%; viability, T/C (second compound 3.16 µM, first compound 0.00316 µM): 49.2%; viability, T/C [34]: 39%; viability, T/C [22]: 36.9%; viability, T/C (second compound 10 µM, first compound 0.00316 µM): 41.9%; viability, T/C [35]: 32.5%; viability, T/C [25]: 35.6%; viability, T/C [26]: 36.2%; viability, T/C [27]: 39.3%; viability, T/C [28]: 2.69%
CCNC(=O)CC1N=C(c2ccc(Cl)cc2)c2cc(OC)ccc2-n2c(C)nnc21 (stereo not given) + C=CC(=O)N1CCN(c2nc(=O)n(-c3c(C)ccnc3C(C)C)c3nc(-c4c(O)cccc4F)c(F)cc23)C(C)C1	0.253	0.103	0.154	0.117	< 0.0316	58.2	58.7	45.8	40.4	55.6	50.7	45.7	33.5	60.4	51.2	51.1	33.7	55.4	48.9	46.3	viability, T/C [5]: 29.7%; viability, T/C [6]: 24.3%; viability, T/C [11]: 28.6%; viability, T/C [12]: 22.3%; viability, T/C [17]: 26.2%; viability, T/C [18]: 22.7%; viability, T/C [22]: 35.8%; viability, T/C [23]: 26.5%; viability, T/C [24]: 19.1%; viability, T/C [25]: 41.6%; viability, T/C [26]: 43.3%; viability, T/C [27]: 33.2%; viability, T/C [28]: 26.9%; viability, T/C [29]: 23.5%; viability, T/C [30]: 17.9%
